≈ marks a conversion by molar mass, not a printed value. Read-outs that look alike come from different tables or passages of the source.
How the values were obtained:
[1] = system: HEK293 cells; assay: HEK293 cytotoxicity assay (Alamar Blue); type: cell-based; conditions: HEK293, 72 h
Method: The HEK 293 cell line was obtained from the European Collection of Authenticated Cell Cultures (ECACC, cat. # 85120602, Salisbury, UK). The cells were grown in a monolayer culture in Dulbecco’s Modified Eagle’s Medium (DMEM) (PanEco, Moscow, Russia), supplemented with 2 mM L-glutamine, 1% of a penicillin/streptomycin solution (Capricorn Scientific, Ebsdorfergrund, Germany), and 10% of heat inactivated fetal bovine serum (HyClone, Cytiva, Marlborough, MA, USA) in a humidified atmosphere containing 5% of CO2 at 37 °C (Binder, Germany). For the assay, HEK 293 cells were seeded in a 96-well plate (Corning, NY, USA) in 100 μL of the complete culture medium, at a final density of 2 × 10^3 cells/well, and were cultured for 24 h for proper attachment. Subsequently, the medium was removed, and the cells were exposed to a tested inhibitor at different concentrations for 72 h in 100 μL of the fresh complete culture medium. The sensitivity of the cells to the compounds was detected using the vital dye Alamar Blue (Invitrogen, San Diego, CA, USA). The Alamar Blue assay was performed according to the procedure described by O’Brien et al.. After incubation with the tested bCSE inhibitors, 10 μL of the Alamar Blue reagent was added into each well, the cell culture plates were returned to the humidified incubator, and the fluorescence was read after 3 h. The plates were exposed to an excitation light of 545 nm wavelength, and emission at 600 nm was measured on the CLARIOstar Plus (BMG LABTECH GmbH, Ortenberg, Germany). To determine half-maximal cytotoxic concentration (CC50), a four-parameter sigmoidal curve model (GraphPad Prism 8 software) was fitted to the measurement data.

[2] = molecular target: S. aureus cystathionine-γ-lyase (bCSE) (Staphylococcus aureus, UniProt A0A0H3K724); assay: IC50 assay: inhibition of H2S production by purified bCSE, WSP5 fluorescent probe; type: biochemical
S. aureus cystathionine-γ-lyase (bCSE), sequence (A0A0H3K724 entry or part of it): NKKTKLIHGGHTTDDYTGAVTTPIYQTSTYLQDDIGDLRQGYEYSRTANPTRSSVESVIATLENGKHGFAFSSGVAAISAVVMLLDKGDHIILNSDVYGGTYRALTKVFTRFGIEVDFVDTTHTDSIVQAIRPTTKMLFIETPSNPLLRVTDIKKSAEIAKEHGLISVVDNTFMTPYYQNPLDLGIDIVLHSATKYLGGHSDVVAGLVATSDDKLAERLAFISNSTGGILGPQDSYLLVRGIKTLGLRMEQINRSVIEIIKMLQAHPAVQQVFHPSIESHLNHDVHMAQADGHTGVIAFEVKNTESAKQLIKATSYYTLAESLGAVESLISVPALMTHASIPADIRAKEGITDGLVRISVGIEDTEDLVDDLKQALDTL
Method: (§1) Fluorescence spectrophotometry-based inhibitory activity toward purified bCSE and hCSE was measured in a 96-well nonbinding black plate (Greiner, Kremsmunster, Austria) at 100 μL of the reaction mixture per well. bCSE and hCSE (0.02 μM) were preincubated in a thermoshaker (Biosan, Riga, Latvia) (30 °C, 300 rpm) for 40 min in 50 mM sodium phosphate buffer (pH 8.0), supplemented with 10 μM pyridoxal 5′-phosphate (Sigma-Aldrich, St. Louis, MO, USA), 0.1% of Tween 20 (Sigma-Aldrich, St. Louis, MO, USA), and 1.2 μM Washington State Probe-5 (Cayman Chemical, Ann Arbor, MI, USA) (excitation: 500 nm, emission: 530 nm) at different concentrations of a tested inhibitor. The reaction was initiated by the addition of 100 μM L-cysteine (TCI, Chennai, Tamil Nadu, India) in 50 mM sodium phosphate buffer pH 8.0 to the reaction mixture, and the enzymatic activity was monitored for 12 h using a CLARIOstar Plus instrument (BMG LABTECH GmbH, Ortenberg, Germany). The 100 µM L-cysteine concentration used in the experiments corresponds to the maximal reported intracellular concentration in bacteria. The data were normalized to the positive and negative controls, and IC50 values were obtained by fitting to a four-parameter sigmoidal curve (inhibitor vs. response, variable slope model) in GraphPad Prism 8 software (GraphPad by Dotmatics, Boston, MA, USA). Each experiment was conducted with 2–3 technical replicates. IC50 values were means of at least two independent experiments.
(§2) For the production of S. aureus cystathionine-γ-lyase (bCSE) and of human cystathionine-γ-lyase (hCSE), plasmids pSUMO:saCSE (Addgene # 54336) and pNIC28-Bsa4 (Addgene # 42365) were employed. Cultivation of a competent E. coli cell strain (Thermo Fisher Scientific, Waltham, MA, USA), transformed with a target plasmid, was carried out on a selective solid medium with kanamycin. Bacterial cells harboring the plasmid vector were cultured at 37 °C and 180 rpm until OD600 = 0.65. Then, isopropyl β-D1-thiogalactopyranoside (IPTG) was added to a final concentration of 1 mM. To obtain bCSE, the cells were cultured for 3.5 h at 37 °C; to obtain hCSE, the cells were cultured for 18–20 h at 25 °C. After centrifugation, cells were resuspended in a buffer composed of 50 mM Tris–HCl, at a pH of 8.0, and 300 mM sodium chloride. After that, the cells were lysed by ultrasonication, with a pulse duration of 15 s and an interval between pulses of 15 s. The amplitude of the ultrasonic vibrations was 50% of the maximum. After lysis, samples were centrifuged for 15 min (20,000× g at 4 ℃). The pH of the supernatant obtained after the centrifugation was adjusted to 7.5 by the addition of a 1 M solution of Tris–OH. Then, the test sample was subjected to filtration through a polyethersulfone membrane with a pore diameter of 0.22 μm.

[3] = molecular target: T1, human cystathionine-γ-lyase (hCSE) (Homo sapiens, UniProt P32929); assay: IC50 assay: inhibition of H2S production by purified hCSE, WSP5 fluorescent probe; type: biochemical
T1 construct: His6-TEV (N, cleaved yes); host or cells: E. coli
T1 sequence (P32929 whole entry): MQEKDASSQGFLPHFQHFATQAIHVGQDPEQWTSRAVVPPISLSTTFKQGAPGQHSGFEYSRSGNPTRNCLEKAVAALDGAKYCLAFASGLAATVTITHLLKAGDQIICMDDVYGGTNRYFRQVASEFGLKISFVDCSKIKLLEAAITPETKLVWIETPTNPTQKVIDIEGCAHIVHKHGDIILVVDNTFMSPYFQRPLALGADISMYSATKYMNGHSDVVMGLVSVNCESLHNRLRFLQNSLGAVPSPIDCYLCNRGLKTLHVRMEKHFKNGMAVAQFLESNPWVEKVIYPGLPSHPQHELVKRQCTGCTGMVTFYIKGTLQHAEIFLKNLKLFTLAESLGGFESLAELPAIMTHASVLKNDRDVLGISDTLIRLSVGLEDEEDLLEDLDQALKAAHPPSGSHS
Method: as §1, §2

[4] = physchem; type: physicochemical; conditions: for solubility at 2 h: 25 °C, pH 7.4, aqueous buffer, kinetic from dmso stock
Method: A stock solution of a compound (10 mM in DMSO, 10 μL) was added to 990 μL of 100 mM sodium phosphate buffer (pH 7.4) and incubated at 25 °C for 2 h with constant shaking. The suspension was filtered through the PVDF membrane filter (Merck Millipore, Burlington, MA, USA). To 320 µL of the filtrate, 80 µL of acetonitrile was added and mixed. The mixture was transferred to a vial and analyzed by ultra-high-performance liquid chromatography (UHPLC) with UV detection. Concentrations were calculated from a 5-point calibration curve. The calibration range was 1 to 100 μM. The controls were diclofenac and nicardipine. All compounds were tested in triplicate.

[5] = LogD7.4, miniaturized shake flask method; type: physicochemical; conditions: 1-octanol / 100 mM sodium phosphate buffer, pH 7.4, 1-octanol / 100 mM sodium phosphate buffer pH 7.4; read-out: Measured logD7.4
Method: Coefficients of distribution between 1-octanol and 100 mM sodium phosphate buffer (pH 7.4) were determined by the miniaturized shake flask method. Namely, 5 μL of a 10 mM compound’s solution in DMSO was dissolved in 245 μL of 1-octanol saturated with phosphate buffer. Next, 500 μL of phosphate buffer saturated with 1-octanol was added, followed by mixing for 3 h. […] After that, 50 μL of the octanol phase (top layer) was aspirated and diluted with 500 μL of 1-octanol saturated with phosphate buffer. Then, the remaining octanol phase was removed; 50 μL of the buffer layer was aspirated and diluted with 500 μL of phosphate buffer saturated with 1-octanol. Both the octanol and phosphate buffer samples were analyzed by LC–MS/MS. The distribution coefficient was determined according to the following equation: logD7.4 = log10 (peak area for octanol sample/peak area for buffer sample). […] All compounds were tested in triplicate.

[6] = in vitro; type: in vitro ADME; conditions: human, plasma
Method: Plasma protein binding was assessed using RED device inserts with built-in cellulose acetate dialysis membranes (molecular weight cutoff: 8 kDa). The final concentration of the test compound in human plasma was 5 μM. The samples were prepared by placing 300 μL of human plasma into the plasma compartment of the RED device and 500 μL of phosphate-buffered saline (pH 7.4) into the buffer compartment. The RED device was fixed to a shaker, placed in a CO2 (5%) incubator, and incubated for 6 h at 37 °C. After an equilibration step, 100 μL aliquots were taken from each compartment; 100 μL of plasma was added to the buffer compartment aliquot and 100 μL of buffer was added to the plasma compartment aliquot. After mixing, 600 μL of acetonitrile containing an internal standard was added. […] All compounds were tested in duplicate. Fraction bound fb was determined via the following equation: fb (%) = [1 − (Cb/Cp)] × 100, where Cb is the concentration of an analyte in the buffer compartment (μM), and Cp is the concentration of the analyte in the plasma compartment (μM).

[7] = Caco-2 cell permeability; type: in vitro ADME; conditions: human
Method: The culture medium consisted of high-glucose DMEM containing 10% of fetal bovine serum, 4 mM L-glutamine, 1% of a solution of nonessential amino acids (PanEco, Moscow, Russia), 100 U/mL penicillin, and 100 μg/mL streptomycin. The cells were maintained for 21 days at 37 °C and 5% CO2. The medium was refreshed every 3 days. A Lucifer yellow rejection assay was applied to determine cell monolayer integrity. […] The Lucifer yellow rejection value was calculated using the equation: LY % rejection = 100*(1−FIb/FIa), where FIb is the fluorescence in the basolateral compartment and FIa is the fluorescence in the apical compartment. […] Both apical-to-basolateral (AB) and basolateral-to-apical (BA) transport were assessed. For apical-to-basolateral transport, 0.3 mL of a test compound solution was added to the apical side, and 0.8 mL of HBSS with 0.5% of BSA was added to the basolateral side. For basolateral-to-apical transport, 0.8 mL of a test compound solution was added to the basolateral side and 0.3 mL of HBSS with 0.5% of BSA was added to the apical side. The Caco-2 cell monolayers were then incubated for 2 h at 37 °C. The pH values of the apical and basolateral compartments were 7.4. […] The supernatant was transferred to a vial and analyzed by liquid chromatography coupled with tandem MS (LC–MS/MS). The AB (or BA) apparent permeability coefficients (Papp, 10^–6 cm/s) were calculated according to the following formula [40, 41]: Papp = (V × ∆C)/(∆t × A × C0), where V is the volume of the receiver compartment (cm^3), C0 is the initial drug concentration in the donor compartment (μM), ∆C is the concentration in the receiver compartment (μM), ∆t is the incubation time (s), and A is the surface area of the cell monolayer (cm^2). An efflux ratio was calculated by dividing Papp (BA) by Papp (AB). All compounds were tested in duplicate.

[8] = Metabolic stability in rat liver microsomes; conditions: for microsomal CLint at 1 µM / half-life at 1 µM: rat, microsomes; for microsomal CLint at 1 µM: pH 7.4, CLint; for half-life at 1 µM: pH 7.4, t1/2, rat liver microsomes
Method: The metabolic stability of a test compound was evaluated based on the rate of disappearance during incubation with rat liver microsomes. […] The natural logarithm of a peak area ratio (compound peak area/internal standard peak area) was plotted against incubation time, and the slope of the line was determined.

[9] = system: S. aureus INA00761 (MRSA); assay: MIC of antibiotics alone and with potentiators, broth microdilution; conditions: no potentiator
Method: (§3) Overnight (ON) culture of a specific strain was grown in the liquid Luria–Bertani nutrient medium (LB broth, BD Difco) for 18 h at 37 °C, with agitation at 180 rpm using an Innova 44R orbital shaker (Eppendorf, Hamburg, Germany). After a certain period, 50 µL of the ON culture was transferred into 5 mL of the LB medium and grown for 3 h at 37 °C with agitation. Growth in the liquid medium was assessed by means of turbidity of the suspension, measured using a Densi-La-Meter II densitometer (Erba Lachema s.r.o., Brno, Czech Republic). Then, the bacterial suspension was diluted to the concentration 10^6 cells/mL with sterile LB and used as a seed culture [38, 39].
(§4) For the assessment of MICs, 96-well microtiter plates were utilized at 200 µL of a medium per well. Each well was filled with 100 µL of the seed culture. After that, 10 µL of a solution of each tested synthetic compound (potentiators) was added into each experimental well. Finally, 90 µL of twofold serial dilutions of an antibiotic in a sterile LB was added into individual wells.
(§5) As a positive control, we set up wells with 100 µL of the bacterial culture and 100 µL of the sterile LB medium. […] Negative-control wells contained 200 µL of the sterile medium. The plates were incubated in a thermostat for 18–20 h at 37 °C. The bacterial growth was assessed as optical density at 600 nm on a CLARIOstar microplate reader (BMG LABTECH GmbH, Ortenberg, Germany)).

[10] = system: S. aureus ATCC 25923; assay: as above; conditions: S. aureus ATCC 25923, no potentiator
Method: as §3, §4, §5

## O=C([O-])c1cn(Cc2cccc3ccccc23)c2ccccc12.[Na+] [Compound 1c]
[1]
  CC50: 308 ± 75.5 µM
[2]
  activity toward bCSE (in words): did not show noticeable activity
[3]
  activity toward hCSE (in words): did not show noticeable activity
[3]; read-out: IC50 biochemical assay hCSE; purified hCSE 0.02 μM, 100 μM L-cysteine, WSP5 probe, mean ± SD
  IC50: > 500 µM

## O=C(O)c1ccc2ccn(Cc3cccc4ccccc34)c2c1 [Compound 4a]
[1]
  CC50: 392 ± 21.8 µM
[2]; IC50 (uM), bCSE enzymatic IC50, rounded, repeated in Table S13
  IC50: 138 µM
[2]; IC50 (uM), bCSE enzymatic IC50, rounded, repeated in Table S14
  IC50: 138 µM
[2]; IC50 (uM), bCSE enzymatic IC50, rounded, repeated in Table S15
  IC50: 138 µM
[2]; IC50 biochemical assay bCSE, purified bCSE 0.02 μM, 100 μM L-cysteine, WSP5 probe, mean ± SD
  IC50: 138 ± 9 µM
[3]; purified hCSE 0.02 μM, 100 μM L-cysteine, WSP5 probe, mean ± SD; read-out: IC50 biochemical assay hCSE
  IC50: > 500 µM

## O=C(O)Cc1ccccc1Nc1c(Cl)cccc1Cl [Diclofenac sodium]
[4]
  solubility at 2 h: > 100 µM

## COC(=O)C1=C(C)NC(C)=C(C(=O)OCCN(C)Cc2ccccc2)C1c1cccc([N+](=O)[O-])c1 (centres unmarked) [Nicardipine]
[4]
  solubility at 2 h: 5.16 ± 0.23 µM (≈ 2.47 µg/mL)
[4]; 2 h, pH 7.4
  Solubility: 5.2 µM (≈ 2.49 µg/mL)

## CC(=O)Nc1ccc(O)cc1 [Paracetamol, reference compound]
[5]
  logD: 0.29 ± 0.02

## CC(C)NCC(O)COc1cccc2ccccc12 (centres unmarked) [Propranolol, reference compound]
[6]; 6 h, 5 μM, pH 7.4
  Fraction bound fb: 85.8%
[6]; pH 7.4, Fraction bound fb
  fraction unbound at 6 h, 5 μM: 0.142
[7]; Caco-2, Papp (BA) / Papp (AB)
  efflux ratio at 2 h, 10 μM: 1.04
[7]; Caco-2, 10 μM, 2 h, pH 7.4
  Papp A→B at 2 h, 10 μM: 30.2 ± 2.9 ×10⁻⁶ cm/s
  Papp B→A at 2 h, 10 μM: 31.6 ± 1.1 ×10⁻⁶ cm/s

## O=c1ccc2ccc(O)cc2o1 [Umbelliferone]
[8]; rat liver microsomes, cofactor NADPH, 1 µM
  CLint: 8.8 µL/min/mg
[8]; rat liver microsomes, cofactor NADPH
  microsomal CLint at 1 µM: 8.81 ± 1 µL/min/mg
[8]; rat liver microsomes, cofactor UDPGA
  microsomal CLint at 1 µM: 180 ± 0.7 µL/min/mg
[8]; cofactor NADPH
  half-life at 1 µM: 2.64 ± 0.301 h
[8]; cofactor UDPGA
  half-life at 1 µM: 0.1283 ± 0.0005 h

## CC1(C)S[C@@H]2[C@H](NC(=O)[C@H](N)c3ccccc3)C(=O)N2[C@H]1C(=O)O [amp, ampicillin]
[9]
  MIC of antibiotic alone: res
[9]; listed as ampicillin
  MIC of antibiotic alone: resistant
[10]
  MIC of antibiotic alone: 0.3 µg/mL

## NC[C@H]1O[C@H](O[C@H]2[C@H](O)[C@@H](O[C@H]3O[C@H](CO)[C@@H](O)[C@H](N)[C@H]3O)[C@H](N)C[C@@H]2N)[C@H](O)[C@@H](O)[C@@H]1O [km, kanamycin]
[9]
  MIC of antibiotic alone: res
[9]; listed as kanamycin
  MIC of antibiotic alone: resistant
[10]
  MIC of antibiotic alone: 12.5 µg/mL

## CCn1cc(C(=O)O)c(=O)c2cc(F)c(N3CCNCC3)cc21 [nor, norfloxacin]
[9]
  MIC of antibiotic alone: 10 µg/mL
[10]
  MIC of antibiotic alone: 2.5 µg/mL

Reference: paper PMC10671052, “Naphthyl-Substituted Indole and Pyrrole Carboxylic Acids as Effective Antibiotic Potentiators—Inhibitors of Bacterial Cystathionine γ-Lyase” (International Journal of Molecular Sciences, 2023)
